Assays:
PARP14 MD2 = target: T1, PARP14 MD2 (Homo sapiens, UniProt Q460N5); assay: Isothermal titration calorimetry; format: binding; details: negative control, Figure 1D
T1 sequence (Q460N5 994-1191): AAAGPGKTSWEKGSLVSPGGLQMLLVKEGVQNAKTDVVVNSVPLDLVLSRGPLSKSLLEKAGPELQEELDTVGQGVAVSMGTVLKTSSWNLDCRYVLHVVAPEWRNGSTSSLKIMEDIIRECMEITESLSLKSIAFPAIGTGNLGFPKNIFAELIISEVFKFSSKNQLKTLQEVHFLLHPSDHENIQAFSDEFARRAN

YFP-PARP14 MD2 = target: T2, YFP-PARP14 MD2 (Homo sapiens, UniProt Q460N5); assay: Laser micro-irradiation assay, recruitment of YFP-PARP14 MD2 to DNA damage sites; format: cell-based; details: U-2 OS cells
T2 sequence (Q460N5 1003-1190 limits assumed): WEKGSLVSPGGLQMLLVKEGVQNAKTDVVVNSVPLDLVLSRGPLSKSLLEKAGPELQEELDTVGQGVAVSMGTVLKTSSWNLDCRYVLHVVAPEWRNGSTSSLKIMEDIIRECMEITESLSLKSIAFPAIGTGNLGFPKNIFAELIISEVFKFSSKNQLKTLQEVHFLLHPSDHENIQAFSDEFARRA

Row | binding to PARP14 MD2 (PARP14 MD2) | Compound | PARP14 MD2 recruitment to laser-induced DNA damage sites (YFP-PARP14 MD2; negative control, concentration not given) | PARP14 MD2 recruitment to laser-induced DNA damage sites (YFP-PARP14 MD2; 10 µM, pre-treated 1 hour)
1 | did not bind | CC(=O)Nc1ccncc1-c1cccc2c1[nH]c1ccccc12 [MnK2-68] | did not interfere with PARP14 MD2 recruitment | 
2 |  | O=C(c1cc(Cc2n[nH]c(=O)c3ccccc23)ccc1F)N1CCN(C(=O)C2CC2)CC1 [Olaparib, reference compound] |  | recruitment of the macrodomain could not be detected
